The target in test [1] is T1, Microsomal triglyceride transfer protein large subunit (Homo sapiens, UniProt P55157).
T1 sequence (P55157 whole entry): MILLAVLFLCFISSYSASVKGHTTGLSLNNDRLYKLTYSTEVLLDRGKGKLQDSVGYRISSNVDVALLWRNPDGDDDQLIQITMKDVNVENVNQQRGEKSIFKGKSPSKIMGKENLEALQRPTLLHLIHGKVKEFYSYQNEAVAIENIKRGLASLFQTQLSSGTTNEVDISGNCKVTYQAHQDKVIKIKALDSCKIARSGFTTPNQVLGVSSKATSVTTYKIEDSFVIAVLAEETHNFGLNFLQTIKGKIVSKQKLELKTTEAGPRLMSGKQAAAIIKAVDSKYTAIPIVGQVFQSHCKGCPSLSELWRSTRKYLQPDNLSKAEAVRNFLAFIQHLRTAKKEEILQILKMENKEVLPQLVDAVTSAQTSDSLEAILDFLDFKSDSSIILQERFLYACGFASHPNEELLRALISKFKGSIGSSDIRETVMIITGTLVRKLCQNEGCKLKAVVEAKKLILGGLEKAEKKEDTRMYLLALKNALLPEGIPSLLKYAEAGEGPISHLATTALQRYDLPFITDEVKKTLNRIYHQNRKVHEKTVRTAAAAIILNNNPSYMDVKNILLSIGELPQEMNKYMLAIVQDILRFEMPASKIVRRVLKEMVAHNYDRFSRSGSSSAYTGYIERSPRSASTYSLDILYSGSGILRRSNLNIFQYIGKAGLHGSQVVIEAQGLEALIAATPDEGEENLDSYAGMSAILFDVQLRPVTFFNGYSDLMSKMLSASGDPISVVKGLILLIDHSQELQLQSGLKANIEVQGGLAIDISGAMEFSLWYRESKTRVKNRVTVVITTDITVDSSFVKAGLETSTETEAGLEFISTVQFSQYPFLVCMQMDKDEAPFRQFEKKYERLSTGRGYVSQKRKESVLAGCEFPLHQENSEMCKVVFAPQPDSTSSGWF
The test is described as follows: Inhibition of MTP in human HepG2 cells assessed as apolipoprotein B production by ELISA. It counts as cell-based.

Test [2] can be described thus: Inhibition of Hedgehog signaling pathway in mouse TM3 cells bearing pTA-8xGli-Luc reporter construct assessed as transcriptional modulation of Gli after 48 hrs by luciferase assay. Particulars: TM3, 48 h.
The target in test [3] is Protein smoothened (Mus musculus, UniProt P56726). The test is described as follows: Antagonist activity at mouse Smo receptor expressed in CHO cells by [3H]Hh-Ag binding assay. It counts as cell-based.
Chain of Protein smoothened (Mus musculus, UniProt P56726) (P56726 whole entry): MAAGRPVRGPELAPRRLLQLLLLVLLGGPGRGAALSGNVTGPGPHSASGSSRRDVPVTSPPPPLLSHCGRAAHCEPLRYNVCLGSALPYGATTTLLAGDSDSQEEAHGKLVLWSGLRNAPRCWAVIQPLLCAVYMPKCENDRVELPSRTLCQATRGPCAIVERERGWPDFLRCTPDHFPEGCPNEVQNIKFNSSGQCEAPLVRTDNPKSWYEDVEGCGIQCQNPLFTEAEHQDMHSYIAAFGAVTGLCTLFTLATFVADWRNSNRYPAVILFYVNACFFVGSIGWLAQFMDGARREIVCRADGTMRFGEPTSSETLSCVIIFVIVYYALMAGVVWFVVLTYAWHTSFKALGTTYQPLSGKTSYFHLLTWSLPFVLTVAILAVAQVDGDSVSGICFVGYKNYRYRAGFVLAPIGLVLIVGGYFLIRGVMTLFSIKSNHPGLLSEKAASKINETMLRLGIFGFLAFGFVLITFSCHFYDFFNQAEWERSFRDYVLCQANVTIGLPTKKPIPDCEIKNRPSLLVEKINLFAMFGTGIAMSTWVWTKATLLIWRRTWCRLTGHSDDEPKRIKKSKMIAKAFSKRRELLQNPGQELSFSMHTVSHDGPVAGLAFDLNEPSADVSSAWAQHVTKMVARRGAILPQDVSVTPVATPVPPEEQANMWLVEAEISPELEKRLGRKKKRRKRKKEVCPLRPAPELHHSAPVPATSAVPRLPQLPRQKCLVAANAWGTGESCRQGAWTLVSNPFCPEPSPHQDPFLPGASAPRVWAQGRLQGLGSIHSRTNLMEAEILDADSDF
In test [4] the target is Protein smoothened (Homo sapiens, UniProt Q99835). The test is described as follows: Antagonist activity at human Smo receptor expressed in CHO cells by [3H]Hh-Ag binding assay. It counts as cell-based.
Chain of Protein smoothened (Homo sapiens, UniProt Q99835) (Q99835 whole entry): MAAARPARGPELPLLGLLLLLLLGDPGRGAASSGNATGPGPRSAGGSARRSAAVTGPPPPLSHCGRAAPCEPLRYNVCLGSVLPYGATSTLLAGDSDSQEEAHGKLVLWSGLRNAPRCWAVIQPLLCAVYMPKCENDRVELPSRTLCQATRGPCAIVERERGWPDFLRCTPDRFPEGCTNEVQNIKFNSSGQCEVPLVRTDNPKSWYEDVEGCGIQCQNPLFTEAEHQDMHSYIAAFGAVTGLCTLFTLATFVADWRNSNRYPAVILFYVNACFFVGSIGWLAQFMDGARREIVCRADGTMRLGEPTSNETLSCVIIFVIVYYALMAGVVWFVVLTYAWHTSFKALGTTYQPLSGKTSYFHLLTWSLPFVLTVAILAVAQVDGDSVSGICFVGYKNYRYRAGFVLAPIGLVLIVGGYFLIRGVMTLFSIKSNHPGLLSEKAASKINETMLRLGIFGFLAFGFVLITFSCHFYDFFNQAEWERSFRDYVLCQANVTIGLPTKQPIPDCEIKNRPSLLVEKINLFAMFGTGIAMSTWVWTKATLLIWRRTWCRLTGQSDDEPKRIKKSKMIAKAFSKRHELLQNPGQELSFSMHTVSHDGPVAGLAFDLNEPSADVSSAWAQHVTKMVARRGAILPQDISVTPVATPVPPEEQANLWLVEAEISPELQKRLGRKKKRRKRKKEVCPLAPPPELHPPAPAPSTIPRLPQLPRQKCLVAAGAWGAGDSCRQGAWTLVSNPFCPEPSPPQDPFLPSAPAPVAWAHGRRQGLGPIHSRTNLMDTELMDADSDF

pIC50: −log10 of the molar value.

As to `COC(=O)N[C@H]1Cc2ccc(NC(=O)c3cccc(C)c3-c3ccc(C(F)(F)F)cc3)cc2C1`, the pIC50 is 8.37 in test [1], 5.67 in test [2], 5.29 at Protein smoothened [3] and 5.12 at Protein smoothened [4].

For `Cc1cccc(C(=O)Nc2ccc3c(c2)C[C@@H](NCc2ccccn2)C3)c1-c1ccc(C(F)(F)F)cc1`, the negative-log IC50 (pIC50) is 5.63 in test [1], 7.00 in test [2], 7.24 at Protein smoothened [3] and 6.92 at Protein smoothened [4].

With `Cc1cccc(C(=O)Nc2ccc3c(c2)C[C@H](NCc2ccccn2)C3)c1-c1ccc(C(F)(F)F)cc1`, the negative logarithm of the IC50 (pIC50) in test [1] is 8.46; in test [2], 5.31; at Protein smoothened [3], 5.06.

Turning to `COC(=O)N[C@@H]1Cc2ccc(NC(=O)c3cccc(C)c3-c3ccc(C(F)(F)F)cc3)cc2C1`, the pIC50 in test [1] is 9.05; in test [2], 5.92; at Protein smoothened [3] it was 5.61; on Protein smoothened [4] it was 5.47.

As for `Cc1cccc(C(=O)Nc2ccc3c(c2)C[C@@H](NC(c2ccccc2)C(F)(F)F)C3)c1-c1ccc(C(F)(F)F)cc1` (some centres not stated), the pIC50 in test [2] is 7.48; on Protein smoothened [3], 7.24; at Protein smoothened [4] it was 7.26.

Turning to `Cc1cccc(C(=O)Nc2ccc3c(c2)C[C@@H](NCc2cnc4ccccc4c2)C3)c1-c1ccc(C(F)(F)F)cc1`, the negative logarithm of the IC50 (pIC50) was 5.89 in test [2], 6.46 at Protein smoothened [3] and 6.68 at Protein smoothened [4].

Regarding `Cc1ccc(CN[C@H]2Cc3ccc(NC(=O)c4cccc(C)c4-c4ccc(C(F)(F)F)cc4)cc3C2)o1`, the pIC50 in test [2] was 8.10; at Protein smoothened [3], 8.22; on Protein smoothened [4], 8.00.

Take `Cc1cccc(C(=O)Nc2ccc3c(c2)C[C@@H](NCC2CCOC2)C3)c1-c1ccc(C(F)(F)F)cc1` (some centres not stated): the pIC50 in test [2] was 5.43; on Protein smoothened [3], 4.78.

For `COc1ccc(CN[C@H]2Cc3ccc(NC(=O)c4cccc(C)c4-c4ccc(C(F)(F)F)cc4)cc3C2)cc1`, the pIC50 in test [2] is 6.44; on Protein smoothened [3] it was 7.03; on Protein smoothened [4], 6.92.

Regarding `Cc1cccc(C(=O)Nc2ccc3c(c2)C[C@@H](NCc2ccccc2)C3)c1-c1ccc(C(F)(F)F)cc1`, the pIC50 is 7.68 in test [2], 8.10 on Protein smoothened [3] and 7.85 at Protein smoothened [4].

Consider `Cc1cccc(C(=O)Nc2ccc3c(c2)C[C@@H](NCc2ccncc2)C3)c1-c1ccc(C(F)(F)F)cc1`, for which the negative-log IC50 (pIC50) in test [2] was 6.82; on Protein smoothened [3] it was 6.72; on Protein smoothened [4] it was 6.62.

Regarding `Cc1cccc(C(=O)Nc2ccc3c(c2)C[C@@H](NC(C)c2ccccc2)C3)c1-c1ccc(C(F)(F)F)cc1` (some centres not stated), the pIC50 in test [2] was 7.06; at Protein smoothened [3] it was 7.54; at Protein smoothened [4], 7.49.

Consider `Cc1cccc(C(=O)Nc2ccc3c(c2)C[C@@H](Nc2ccccc2)C3)c1-c1ccc(C(F)(F)F)cc1`, for which the pIC50 in test [2] was 7.39; at Protein smoothened [3], 7.09; at Protein smoothened [4], 6.89.

As for `Cc1cccc(C(=O)Nc2ccc3c(c2)C[C@@H](NCc2cccs2)C3)c1-c1ccc(C(F)(F)F)cc1`, the pIC50 in test [2] is 8.00; on Protein smoothened [3], 8.05; at Protein smoothened [4] it was 8.15.

On to `Cc1csc(CN[C@H]2Cc3ccc(NC(=O)c4cccc(C)c4-c4ccc(C(F)(F)F)cc4)cc3C2)n1`, for which the pIC50 in test [2] is 7.77; at Protein smoothened [3] it was 8.40; on Protein smoothened [4], 8.15.

Regarding `Cc1cccc(C(=O)Nc2ccc3c(c2)C[C@@H](NCc2scnc2C)C3)c1-c1ccc(C(F)(F)F)cc1`, the negative-log IC50 (pIC50) in test [2] was 6.80; on Protein smoothened [3] it was 6.92; on Protein smoothened [4], 6.77.

Take `Cc1cccc(C(=O)Nc2ccc3c(c2)C[C@H](NCc2nccs2)C3)c1-c1ccc(C(F)(F)F)cc1`: the values for the negative-log IC50 (pIC50) (in test [2]; at Protein smoothened [3]; at Protein smoothened [4]) were 5.37, 5.92 and 6.11, respectively.

Consider `Cc1cccc(C(=O)Nc2ccc3c(c2)C[C@@H](NCc2nccs2)C3)c1-c1ccc(C(F)(F)F)cc1`, for which the pIC50 is 7.60 in test [2], 8.00 on Protein smoothened [3] and 7.52 at Protein smoothened [4].

With `CC(=O)Nc1ccc(CN[C@H]2Cc3ccc(NC(=O)c4cccc(C)c4-c4ccc(C(F)(F)F)cc4)cc3C2)cc1`, the pIC50 in test [2] was 6.35; on Protein smoothened [3] it was 6.44; at Protein smoothened [4], 6.47.

With `Cc1cccc(C(=O)Nc2ccc3c(c2)C[C@@H](NCc2ccco2)C3)c1-c1ccc(C(F)(F)F)cc1`, the pIC50 in test [2] was 7.64; at Protein smoothened [3] it was 7.85.

For `O=C(Nc1ccc2c(c1)CC(NCc1ccccn1)C2)c1ccccc1-c1ccc(Cl)cc1` (racemic), the negative logarithm of the IC50 (pIC50) in test [2] was 5.31; on Protein smoothened [3], 5.57.

With `COC(=O)NC1Cc2ccc(NC(=O)c3cccc(C)c3-c3ccc(C(F)(F)F)cc3)cc2C1` (racemic), the results for the negative logarithm of the IC50 (pIC50) (in test [2]; at Protein smoothened [3]; on Protein smoothened [4]) were 5.88, 5.53 and 5.57, respectively.

With `Cc1cccc(C(=O)Nc2ccc3c(c2)CC(NC(=O)c2ccccc2)C3)c1-c1ccc(C(F)(F)F)cc1` (racemic), the pIC50 in test [2] is 6.22.

`O=C(Nc1ccc2c(c1)CC(NCc1ccccn1)C2)c1ccccc1-c1ccc(C(F)(F)F)cc1` (racemic): the results for the pIC50 (in test [2]; at Protein smoothened [3]; at Protein smoothened [4]) were 6.70, 6.31 and 6.10, respectively.

Consider `Cc1cccc(C(=O)Nc2ccc3c(c2)CC(NCc2ccccc2)C3)c1-c1ccc(C(F)(F)F)cc1` (racemic), for which the negative-log IC50 (pIC50) in test [2] was 7.03.

With `Cc1cccc(C(=O)Nc2ccc3c(c2)CC(NCc2ccccn2)C3)c1-c1ccc(C(F)(F)F)cc1` (racemic), the pIC50 in test [2] is 7.00; at Protein smoothened [3], 6.96.

`Cc1ccc(-c2ccc(C(F)(F)F)cc2)c(C(=O)Nc2ccc3c(c2)CC(NCc2ccccn2)C3)c1` (racemic): the pIC50 is 5.17 in test [2] and 5.06 at Protein smoothened [3].

For the molecule `Cc1cccc(C(=O)Nc2ccc3c(c2)CC(NS(=O)(=O)c2ccccc2)C3)c1-c1ccc(C(F)(F)F)cc1` (racemic), in test [2], the pIC50 was 5.90.

In the case of `O=C(Nc1ccc2c(c1)CC(NCc1ccccn1)C2)c1ccccc1-c1ccccc1` (racemic), the figures for the pIC50 (in test [2]; at Protein smoothened [3]; at Protein smoothened [4]) were 6.00, 5.85 and 5.94, respectively.

In the case of `COc1ccc(-c2ccc(C(F)(F)F)cc2)c(C(=O)Nc2ccc3c(c2)CC(NCc2ccccn2)C3)c1` (racemic), the pIC50 (in test [2]; at Protein smoothened [3]) was below 5.30 each time.

Regarding `CC1=C2C[C@H]3[C@@H](CC=C4C[C@@H](O)CC[C@@]43C)[C@@H]2CC[C@]12O[C@@H]1C[C@H](C)CN[C@H]1[C@H]2C` [CYCLOPAMINE], the pIC50 in test [2] is 7.34.

These data come from ChEMBL document CHEMBL1149081, “Identification and structure-activity relationships of ortho-biphenyl carboxamides as potent Smoothened antagonists inhibiting the Hedgehog signaling pathway” (Bioorg Med Chem Lett, 2009).
